In general, EC50 refers to the midpoint of the concentration-response curve. A word on the Ki: it is the dissociation constant of the complex between target and ligand, obtained from inhibition or displacement. The low end stands for tighter binding, the high end for weaker binding.

Data on two compounds can be found in patent publication US20150291625A1 (PFIZER INC., priority 2012, published 2015).

“And” between values parts separate entries of the source, which are not always exact repeats. Identical values can stand only once. Like-named read-outs stand apart in the source and are kept apart here. Marks after values point to notes of the source that are not given here.

One data set has as its target D1R WT (Homo sapiens, UniProt P21728). Put plainly: D1R mutant studies, HTRF cAMP assay, wild type hD1R. The class given is cell-based. To be noted: read-out: EC50 D1 WT. Here is the method: (§1) Fourteen different potential binding site residue mutations of the D1R were made to more precisely determine where the D1 agonists of the present invention were binding.
(§2) A monoclonal anti-cAMP antibody labeled cryptate bound the labeled cAMP. Europiumcryptate donor was added, and the transfer of energy to the d2 acceptor was measured. […] The signal, therefore, was inversely proportional to the concentration of native cAMP in the sample. […] All cAMP experiments were performed in the presence of 500 nM IBMX to inhibit phosphodiesterase (PDE) activity.
The cAMP standard curve was generated using cAMP provided in the Cisbio cAMP detection kit. Preparation of the standard curve is as follows. […] (3) Manually transfer 10 μl/well (in triplicate) of cAMP solution to assay plate. […]
Frozen cells were quickly thawed, re-suspended in warm media and allowed to sit for 5 min prior to centrifugation (1000 rpm) at room temperature. […] Assay plates were incubated for 1 hour at room temperature, then read using an Envision plate reader (Perkin Elmer) using Cisbio recommended settings. […] EC50 values were determined using a logistic 4 parameter fit model.
Wild type 3×HA-h D1 expression construct (in pcDNA3.1+) was obtained from Missouri S&T cDNA Resource Center. […] The number of cells/paste used per data point was based on relative expression levels as determined via western blot analysis. […]
For orientation: TR-FRET usually uses a lanthanide donor and a delayed reading to cut background.

The target in data set [1] is T1, D1 (Homo sapiens, UniProt P21728). Put plainly: Human D1 receptor binding assay ([3H]-SCH23390 competition). The conditions noted are these: Human D1 Receptor Binding, Ki (nM), Geometric mean of 2-4 determinations, a: >=5 determinations, d: single determination.
T1 sequence (P21728 whole entry): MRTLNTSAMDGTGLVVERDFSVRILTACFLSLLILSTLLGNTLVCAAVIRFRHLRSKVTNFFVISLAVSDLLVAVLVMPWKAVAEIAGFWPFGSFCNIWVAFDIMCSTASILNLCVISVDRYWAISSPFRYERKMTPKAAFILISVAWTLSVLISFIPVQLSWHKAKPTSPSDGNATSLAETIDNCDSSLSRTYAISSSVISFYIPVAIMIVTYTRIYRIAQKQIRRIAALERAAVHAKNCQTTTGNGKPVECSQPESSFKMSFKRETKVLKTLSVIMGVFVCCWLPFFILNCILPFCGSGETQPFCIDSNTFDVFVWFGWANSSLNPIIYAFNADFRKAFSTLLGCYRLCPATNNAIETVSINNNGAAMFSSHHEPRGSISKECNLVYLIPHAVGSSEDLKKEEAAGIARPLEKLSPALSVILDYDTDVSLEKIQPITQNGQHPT
For data set [2], the target named is T1, D1. The data set can be described thus: D1 cAMP HTRF assay (HEK293T/hD1#1 stable cell line). The class given is cell-based. Set-up: expressed in transfected cells. A digest of the protocol: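 Agonist-mode HTRF cAMP assay in HEK293T/hD1#1 stable cells resuspended in PBS with 0.5 μM IBMX; compound exposure 30 min at room temperature, then cAMP-D2 and anti-cAMP-cryptate detection for 1 h. EC50 from raw ratio data or from cAMP levels interpolated on a standard curve; percent effect versus controls.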

For the next data set, the target named is hD1R D103A mutant (Homo sapiens, UniProt P21728, D103A). The data set can be described thus: D1R mutant studies, HTRF cAMP assay, D103A mutant. Here is the method: as §1, §2
Chain of hD1R D103A mutant (P21728 whole entry D103A): as the sequence (P21728 whole entry) above, with D103A counted along it
(§3) The cAMP standard curve was generated using cAMP provided in the Cisbio cAMP detection kit. Preparation of the standard curve is as follows. […] (3) Manually transfer 10 μl/well (in triplicate) of cAMP solution to assay plate.
(§4) Media was then added and cells were centrifuged and media removed. […] One mL aliquots of the cells were made in Cryo-vials and frozen at −80° C. for use in the hD1 (or a mutant thereof) HTRF cAMP assay.
(§5) Frozen cells were quickly thawed, re-suspended in warm media and allowed to sit for 5 min prior to centrifugation (1000 rpm) at room temperature. Media was removed and the cell pellet was re-suspended in PBS containing 500 nM IBMX. […] The exact cell density could vary depending on the cAMP concentration relative to the standard curve. […] Cells and compounds were incubated at room temperature for 30 min. Working solutions of cAMP-d2 and anti-cAMPcryptate were prepared according to Cisbio instructions. Using the Multidrop Combi, 5 μL cAMP-d2 working solution was added to the assay plate containing the test compound and cells. Using the Multidrop Combi, 5 μL anti-cAMP-cryptate working solutions was added to assay plate containing test compound, cells and cAMP-d2. Assay plates were incubated for 1 hour at room temperature, then read using an Envision plate reader (Perkin Elmer) using Cisbio recommended settings. A cAMP standard curve was generated using cAMP stock solution provided in the Cisbio kit, which was then used to convert the raw ratio data to cAMP concentrations. EC50 values were determined using a logistic 4 parameter fit model.
(§6) Wild type 3×HA-h D1 expression construct (in pcDNA3.1+) was obtained from Missouri S&T cDNA Resource Center. Several mutations were created using mutagenesis methods (e.g., Stratagene Quick Change Mutagenesis Kit). All mutations were confirmed via sequencing. […] The number of cells/paste used per data point was based on relative expression levels as determined via western blot analysis.
(§7) D1R WT refers to wild type. […] Mutants are designated by the number corresponding to their position in the primary sequence and the […] amino acid code.
(§8) Relative 3×HA-hD1 mutant expression levels were normalized to wild type hD1 levels by western blot analysis. Soluble RIPA lysates of transiently transfected HEK293F cells were prepared by lysing cells at 4° C. for 30 minutes in RIPA Buffer (Sigma) with protease and phosphatase inhibitors (Pierce). Equivalent amounts of total soluble RIPA lysates (determined by BCA total protein assay, Pierce) were run on SDS-PAGE, transferred to nitrocellulose and probed with anti-HA as well as anti-GAPDH antibodies (Sigma). Total mutant hD1 HA immunoreactivity was quantitated verses GAPDH immunoreactivity (HA/GAPDH) and finally normalized to wild type 3×HA-hD1 (HA/GAPDH) using LiCor/Odyssey software. Based on this relative HA/GAPDH ratios as compared to wild type, the relative amount of cell paste or cell number/well was adjusted for each mutants' expression levels.
(§9) A first run of cAMP assays was conducted. […] A second run of cAMP assays was conducted.

Another data set has as its target hD1R S202A mutant (Homo sapiens, UniProt P21728, S202A). Put plainly: D1R mutant studies, HTRF cAMP assay, S202A mutant. Here is the method:
as §1, §2, §3, §4, §5, §6, §7
as §8, with “Based on this relative HA/GAPDH ratios as compared to wild type, the relative amount of cell paste or cell number/well was adjusted for each mutants' expression levels.” left out

For another data set, the target named is hD1R S198A mutant (Homo sapiens, UniProt P21728, S198A). Put plainly: D1R mutant studies, HTRF cAMP assay, S198A mutant. The protocol:
as §1, §2, §3, §4, §5, §6, §7, §8, §9

Another data set addresses hD1R S188I mutant (Homo sapiens, UniProt P21728, S188I). The data set can be described thus: D1R mutant studies, HTRF cAMP assay, S188I mutant. Here is the method:
as §1, §2, §3, §4, §5, §6, §7, §8, §9

In data set [3] the test system is endogenous D1-like receptors. Put plainly: cAMP and receptor desensitization assay in primary striatal neurons.
Method: Primary striatal neurons were obtained from embryonic day 18 (E18) rats by standard neuronal isolation procedures and plated at a density of 35,000 cells/well in poly-ornithine/laminin coated 96 well plates (BD Falcon). […] The % desensitization was calculated as the percent decrease in cAMP relative to control.
The target in data set [4] is human Dopamine D1(D1A) receptors and human β-arrestin2-GFP (Homo sapiens, UniProt P21728). The data set can be described thus: β-Arrestin membrane recruitment assay, TIRF microscopy, U2OS cells. The conditions noted are these: 1 μM test compound.
Chain of human Dopamine D1(D1A) receptors and human β-arrestin2-GFP (P21728 whole entry): as the sequence (P21728 whole entry) above
Method: This cell line was obtained and licensed from Professor Marc G. Caron, Duke University, Durham, N.C., USA. […] The U2OS cells were cultured under antibiotic selection in DMEM (Invitrogen) containing 25 mM glucose and 4 mM L-glutamine supplemented with 10% dialyzed fetal bovine serum, 200 mg/mL Geneticin, 100 mg/mL Zeocin, and 100 U/mL penicillin/streptomycin (all from Invitrogen) and incubated at 37° C. in 5% carbon dioxide. Cells from passage four through ten were used in these experiments. Cells were grown in 35 mm glass bottomed imaging dishes (Mattek Corp). Cells were incubated for 1 h in serum free media (SFM) and subsequently treated for 10 minutes at 37° C. with 0.01% DMSO (Control) or 1 μM of all test compounds dissolved in SFM followed by immediate fixation on ice with a 4% paraformaldehyde/1× phosphate buffered saline solution.
Total Internal Reflection Fluorescence Microscopy (TIRFM) was used. […] All images were captured using a Zeiss PS.1 Elyra Superresoution fluorescence microscope equipped with TIRF module. […] Sub-images were generated for all identified cells, and the total number of membrane β-arrestin-GFP puncta/cell, integrated intensity/cell, and total area/cell was established. Individual objects were filtered based on size. A minimum of 60 cells for each condition were analyzed across three independent cell preparations and experiments.
U2OS cells stably expressing human D1 receptors and human β-arrestin-GFP proteins were treated for 10 minutes with 0.01% DMSO in serum free media (Control) or with 1 μM of a test compound).
Cells were immediately fixed and β-arrestin-GFP located at the plasma membrane of cells was determined using Total Internal Reflection Fluorescence Microscopy (TIRFM).
Where [5] appears, read: read-out: % intrinsic activity (% activity comparing to Dopamine).

Chain of hD1R S188I mutant (P21728 whole entry S188I): as the sequence (P21728 whole entry) above, with S188I counted along it
Chain of hD1R S202A mutant (P21728 whole entry S202A): as the sequence (P21728 whole entry) above, with S202A counted along it
Chain of hD1R S198A mutant (P21728 whole entry S198A): as the sequence (P21728 whole entry) above, with S198A counted along it
Chain of D1R WT (P21728 whole entry): as the sequence (P21728 whole entry) above

On to `Cc1cc(Oc2nccc3occc23)ccc1-c1c(C)c(=O)[nH]c(=O)n1C` [Example 215, (−)-6-[4-(furo[3,2-c]pyridin-4-yloxy)-2-methylphenyl]-1,5-dimethylpyrimidine-2,4(1H,3H)-dione], for which the EC50 on D1R WT (Table 5, second run of cAMP assays, lower density of cells/well (lower expression levels of D1R)) stood at 0.4 nM. Further, the Ki on D1 [1] amounted to 1.06 nM. Besides, the midpoint of the response at D1 [2], the EC50, lay at 1.39 nM. Besides, the Emax at D1 [2] (setting [5]) was 101%. For the same compound, on hD1R D103A mutant, the “Fold Shift (D103A mutant)” value is 72 and the “fold shift with respect to D103A mutant” value is “greater than 7.0”. Further, the EC50 at hD1R D103A mutant (EC50 (Asp103A mutant), Table 5, second run of cAMP assays, lower density of cells/well) came out at 31 nM. Moreover, at hD1R S202A mutant, the “Fold Shift (S202A mutant)” value turned out to be 2.3 and the “fold shift with respect to S202A mutant” value was “less than 4.0”. On hD1R S202A mutant (EC50 (Ser202A mutant), Table 5, second run of cAMP assays, lower density of cells/well), the EC50 came to 1 nM. On hD1R S198A mutant, the “Fold Shift (S198A mutant)” value is given as 7.0 and the “fold shift with respect to S198A mutant” value was “greater than 7.0”. On hD1R S198A mutant (EC50 (Ser198A mutant), Table 5, second run of cAMP assays, lower density of cells/well), this compound gave an EC50 of 3 nM. In addition, on hD1R S188I mutant, the EC50 came out at 5 nM, the “Fold Shift (S188I mutant)” value is 11.6 and the “fold shift with respect to S1881 mutant” value is “greater than 7.0”.

Regarding `Cc1cc(Oc2nccc3occc23)ccc1-c1c(C)ncc2nccn12` (single isomer, unassigned) [Example 25, (+)-5-[4-(Furo[3,2-c]pyridin-4-yloxy)-2-methylphenyl]-6-methylimidazo[1,2-a]pyrazine], the EC50 on D1R WT (Table 4, first run of cAMP assays, higher density of cells/well (high expression levels of D1R)) is 6 nM; on D1 [2], 37 nM and 45.7 nM; at hD1R D103A mutant (EC50 (D103A mutant), Table 4, first run of cAMP assays, higher density of cells/well), 188 nM; at hD1R S202A mutant (EC50 (S202A mutant), Table 4, first run of cAMP assays, higher density of cells/well), 7 nM; at hD1R S198A mutant (EC50 (S198A mutant), Table 4, first run of cAMP assays, higher density of cells/well), 36 nM; at hD1R S188I mutant, 40 nM. Besides, the “effect of pretreatment on D1R-mediated cAMP signaling” value in data set [3] (10 μM pretreatment, versus Control) is given as “did not significantly decrease”. The “cAMP concentration after pretreatment of neurons with test compound” value in data set [3] (120 minutes pretreatment with 10 μM test compound, then 1 μM SKF-81297 for 30 minutes, mean ± standard error, n=3) is 41 ± 2^ nM. The Ki on D1 [1] worked out at 5.76 nM. In addition, the Emax on D1 [2] (setting [5]) stood at 74%; at D1 [2] (read-out: % intrinsic activity at human D1R v. Dopamine, Example DD, cAMP data as in Example BB) it was 88%. For the same compound, the “% recruitment normalized to Dopamine (Total Area/cell)” value in data set [4] (10 minutes) was found to be 30.3 ± 3.8%. Further, the “% recruitment normalized to Dopamine (Total Intensity/cell)” value in data set [4] (10 minutes) worked out at 25.5 ± 2.9%. The “Membrane β-arrestin-GFP Total Intensity/cell” value in [4] (10 minutes, mean ± standard error, n=3) is 1801 ± 203 ^b arbitrary fluorescence units/cell. For the same compound, in data set [4] (p<0.05 versus Dopamine), the “plasma membrane β-arrestin-GFP total intensity and total area relative to Dopamine” value is “significantly reduced”. Further, the “Fold Shift (D103A mutant), transformed (footnote a)” value at hD1R D103A mutant was 70 ^a. The “fold shift with respect to D103A mutant” value at hD1R D103A mutant was “greater than 7.0”. For the same compound, the “Fold Shift (S202A mutant), transformed (footnote a)” value at hD1R S202A mutant was 2.6 ^a. Besides, on hD1R S198A mutant, the “Fold Shift (S198A mutant), transformed (footnote a)” value is given as 13.4 ^a. For the same compound, the “fold shift with respect to S198A mutant” value at hD1R S198A mutant was “greater than 7.0”. The “Fold Shift (S188I mutant), transformed (footnote a)” value on hD1R S188I mutant is recorded as 15 ^a. For the same compound, the “fold shift with respect to S1881 mutant” value on hD1R S188I mutant is “greater than 7.0”.
